Reference: article PMC7215935, “GM1 Oligosaccharide Crosses the Human Blood–Brain Barrier In Vitro by a Paracellular Route” (International Journal of Molecular Sciences, 2020)

How the values were obtained:
MRPs = test: ABC transporter competition assay (Caco-2 pump out), CMFDA efflux; conditions: Caco-2 cells, 10, 50 and 100 μM, vs control
Method: Briefly, Caco-2 cells in 96-well plates were washed once with RH buffer and incubated for 120 min with 10 µM R123 or for 15 min with 0.5 µM CMFDA. R123 and CMFD are substrates for the major efflux pumps expressed by BBB and intestine cells, i.e., P-gp/BCRP and MRPs, respectively. After the incubation period, Caco-2 cells were washed twice with RH buffer with or without test compounds (OligoGM1 at 10, 50, and 100 µM). The rate out (Kout) of Caco-2 cells for fluorescent dyes was monitored by fluorescence measurement (λex = 501 nm and λem = 538 nm for R123; λex = 485 nm and λem = 538 nm for CMFDA) using a microplate fluorescent reader (BioTek, H1, Vermont, Winooski). The amount of dye expelled from the cells was measured at 37 °C and every 5 min for one hour for R123 and every 2 min for 30 min for CMFDA. The rate out of the dye from cells was calculated as the slope of the curve of the cumulative amount of dye against the time (Kout = ∆pmol⁄∆t) and compared with the value in the presence of test compounds.

[1] = test system: human brain-like endothelial cells (hBLECs); test: Direct transport (apical to basolateral, A → B) across the hBLEC monolayer: Pe and Papp; assay type: in vitro ADME; conditions: 300 μM apical, after 240 min
TrkA-ERK1/2 pathway = TrkA-ERK1/2 pathway activation in N2a cells (immunoblotting); assay type: cell-based, mouse; conditions: basolateral solution
Method: Precisely, [^3H]OligoGM1 (1 × 10^6 dpm) diluted into cold OligoGM1 solution (300 µM) was administered for 240 min to hBLECs in the upper compartment so that at a volume of 0.5 mL there was 150 nmol of OligoGM1. […] After the 240 min incubation period, the basolateral solution was screened to find the quantity of crossed OligoGM1 by measuring ^3H-radioactivity and was then administered to N2a cells for 24 h. For control cells, we administered a basolateral solution derived from hBLECs incubated with Transfectagro without OligoGM1. Morphological signals of neurodifferentiation were evaluated by cell observation and TrkA-ERK1/2 pathway activation was verified by immunoblotting (for procedural details see Supplementary Materials and [22, 23]).
Caco-2 cells are not listed as commonly misidentified cell line by the International Cell Line Authentication Committee. However it is reported that culture condition and cell origin can deeply affect Caco-2 morphology and behavior [4-6]. […]
Since mycoplasma could infect of Caco-2 cells, we validated the absence of any contamination by two methods (data not shown). […] Briefly culture supernatants were mixed with MycoAlert reagents according to manufacturer instruction and the luminescence was measured after 10 min using fluorimeter (BioTek, H1, Vermont, Winooski). […]
It is calculated according to the equation (1): […]

In the case of `CC(=O)NC1C(O)CC(OC2C(O)C(OC3C(CO)OC(O)C(O)C3O)OC(CO)C2OC2OC(CO)C(O)C(OC3OC(CO)C(O)C(O)C3O)C2NC(C)=O)(C(=O)O)OC1C(O)C(O)CO` (stereo not drawn) [OligoGM1, β-Gal-(1-3)-β-GalNAc-(1-4)-[α-Neu5Ac-(2-3)]-β-Gal-(1-4)-β-Glc], the “effect on efflux (Kout) of CMFDA” value (MRPs) was “did not identify any difference”, the “concentration in receiving compartment” value [1] was ~ 25 μM and the “share of administered amount in receiving compartment” value ([1]; Transfectagro medium) was 25%. The “TrkA-ERK1/2 pathway (pTrkA, pERK1/2)” value (TrkA-ERK1/2 pathway) was “activation of the TrkA-ERK1/2 pathway”.
